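Following 48 hours of exposure in 96-well plates, responses at five concentrations were used to interpolate endpoints linearly. The concentration for 50% growth inhibition is given as GI50.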 Active and inactive are the calls of the source. Rule as the data show it: active = GI50 up to about 1.1 µM and inactive = higher. Where a SMILES comes first, the peptide text is derived from it. [ ]: non-standard residue; d: D form. The star is where a group is joined. Chg = N[CH](C(=O)O)C1CCCCC1; Cbz = O=C(OCc1ccccc1)*; OBn = c1ccc(CO*)cc1
Experiments:
Test in all cases: growth of human tumour cells (NCI), 48 h
786-0 = system: 786-0
A549 = system: A549
ACHN = system: ACHN
CAKI-1 = system: CAKI-1
CCRF-CEM = system: CCRF-CEM
COLO 205 = system: COLO 205
DU-145 = system: DU-145
EKVX = system: EKVX
HCC 2998 = system: HCC 2998
HCT-116 = system: HCT-116
HCT-15 = system: HCT-15
HL-60 = system: HL-60
HOP-62 = system: HOP-62
HOP-92 = system: HOP-92
HT-29 = system: HT-29
Hs-578T = system: Hs-578T
IGROV-1 = system: IGROV-1
K562 = system: K562
KM12 = system: KM12
LOX IMVI = system: LOX IMVI
M14 = system: M14
MCF7 = system: MCF7
MDA-MB-231 = system: MDA-MB-231
MDA-MB-435 = system: MDA-MB-435
MDA-N = system: MDA-N
MOLT-4 = system: MOLT-4
Malme-3M = system: Malme-3M
NCI-H226 = system: NCI-H226
NCI-H23 = system: NCI-H23
NCI-H460 = system: NCI-H460
NCI-H522 = system: NCI-H522
NCI/ADR-RES = system: NCI/ADR-RES
OVCAR-3 = system: OVCAR-3
OVCAR-4 = system: OVCAR-4
OVCAR-5 = system: OVCAR-5
OVCAR-8 = system: OVCAR-8
PC-3 = system: PC-3
RPMI-8226 = system: RPMI-8226
RXF 393 = system: RXF 393
SF-268 = system: SF-268
SF-295 = system: SF-295
SF-539 = system: SF-539
SK-MEL-28 = system: SK-MEL-28
SK-MEL-2 = system: SK-MEL-2
SK-MEL-5 = system: SK-MEL-5
SK-OV-3 = system: SK-OV-3
SN12C = system: SN12C
SNB-19 = system: SNB-19
SNB-75 = system: SNB-75
SR = system: SR
SW-620 = system: SW-620
T47D = system: T47D
TK-10 = system: TK-10
U-251 = system: U-251
UACC-257 = system: UACC-257
UACC-62 = system: UACC-62
UO-31 = system: UO-31

**Q.** What does the source list for COC(=O)C(NC(=O)C(CC(=O)OCc1ccccc1)NC(=O)OCc1ccccc1)C1CCCCC1 (configuration not stated) (Cbz-Asp(OBn)-[Chg]-OMe; configuration not given here)?
**A.** GI50 (786-0): > 100 µM (inactive); GI50 (A549): > 100 µM (inactive); GI50 (ACHN): > 100 µM (inactive); GI50 (CAKI-1): > 100 µM (inactive); GI50 (CCRF-CEM): > 100 µM (inactive); GI50 (COLO 205): > 100 µM (inactive); GI50 (DU-145): > 100 µM (inactive); GI50 (EKVX): > 100 µM (inactive); GI50 (HCC 2998): > 100 µM (inactive); GI50 (HCT-116): > 100 µM (inactive); GI50 (HCT-15): > 100 µM; GI50 (HL-60): > 100 µM (inactive); GI50 (HOP-62): > 100 µM (inactive); GI50 (HOP-92): 21.7 µM (inactive); GI50 (HT-29): 78.3 µM (inactive); GI50 (Hs-578T): < 0.01 µM (active); GI50 (IGROV-1): > 100 µM (inactive); GI50 (K562): > 100 µM (inactive); GI50 (KM12): > 100 µM (inactive); GI50 (LOX IMVI): > 100 µM (inactive); GI50 (M14): > 100 µM (inactive); GI50 (MCF7): > 100 µM (inactive); GI50 (MDA-MB-231): 84.3 µM (inactive); GI50 (MDA-MB-435): > 100 µM (inactive); GI50 (MDA-N): > 100 µM (inactive); GI50 (MOLT-4): 38.3 µM (inactive); GI50 (Malme-3M): > 100 µM (inactive); GI50 (NCI-H226): > 100 µM (inactive); GI50 (NCI-H23): > 100 µM (inactive); GI50 (NCI-H460): > 100 µM (inactive); GI50 (NCI-H522): > 100 µM (inactive); GI50 (NCI/ADR-RES): > 100 µM (inactive); GI50 (OVCAR-3): > 100 µM (inactive); GI50 (OVCAR-4): > 100 µM (inactive); GI50 (OVCAR-5): > 100 µM (inactive); GI50 (OVCAR-8): > 100 µM (inactive); GI50 (PC-3): > 100 µM (inactive); GI50 (RPMI-8226): 48.2 µM (inactive); GI50 (RXF 393): > 100 µM (inactive); GI50 (SF-268): > 100 µM (inactive); GI50 (SF-295): 67.3 µM (inactive); GI50 (SF-539): 59.7 µM (inactive); GI50 (SK-MEL-28): > 100 µM (inactive); GI50 (SK-MEL-2): 51.9 µM (inactive); GI50 (SK-MEL-5): 0.195 µM (active); GI50 (SK-OV-3): > 100 µM (inactive); GI50 (SN12C): > 100 µM (inactive); GI50 (SNB-19): > 100 µM (inactive); GI50 (SNB-75): 62.8 µM (inactive); GI50 (SR): 59 µM (inactive); GI50 (SW-620): > 100 µM (inactive); GI50 (T47D): 48 µM (inactive); GI50 (TK-10): > 100 µM (inactive); GI50 (U-251): > 100 µM (inactive); GI50 (UACC-257): > 100 µM (inactive); GI50 (UACC-62): > 100 µM (inactive); GI50 (UO-31): 69.7 µM (inactive)

Reference: ChEMBL document CHEMBL1201862, “PubChem BioAssay data set” (2004)
